Legend:
[1] = system: isolated ischemic rat heart; assay: Cardioprotective effect in isolated ischemic rat heart model (Langendorff); conditions: 10 μM, 30 min global ischemia, 30 min reperfusion
Procedure: Male rats (300 450 g, the Korea Research Institute of Chemical Technology, Experimental Animal Lab) were anesthetized by intraperitoneal injection with sodium pentobarbital at a dose of 100 mg/kg and were intravenously administered with heparine at a dose of 1000 U/kg, followed by the excision of the heart. In detail, a tracheotomy was performed and a tracheal cannula (PE 240) was inserted into the trachea for subsequent artificial ventilation with room air using a rodent ventilator. […] A catheter tip manometer connected to a latex balloon filled with a mixture of ethanol and distilled water (1:1 v/v) was inserted via an incision in the left atrium into the left ventricle, and the intraventricular pressure thereof transmitted to the latex balloon was measured isovolumetrically with a transducer and recorded on a recording system (Linearcorder mark 8 WR 3500) with the aid of an amplifier (Plugsys bridge amplifier). After stabilizing the heart for 15 min, the balloon volume was adjusted to create a left ventricular end-diastolic pressure (LVEDP) of 5 mmHg during the initial baseline period. The volume of the balloon was maintained until the end of the experiment. Baseline heart contraction function, spontaneous heart rate (HR) and coronary flow (CF) were determined from the left ventricular contraction interval. The left ventricular developed pressure (LVDP), which is regarded as an index of contractile function of the isolated heart, was calculated by subtracting left ventricular end-diastolic pressure (LVEDP) from left ventricular peak systolic pressure (LVSP). In contrast to the heart in the body, the Langendorff heart cannot be measured for cardiac output and thus, RPP (rate-pressure product), which is an important indirect indicator for cardiac performance, was calculated by multiplying heart rate (HR) by LVDP. Throughout the experiment, the temperature of the heart was maintained constant by […] in a 37° C. physiological solution to which 95% O2/5% CO2 was continuously supplied. The heart thus stabilized was perfursed for 10 min with a solution of the compounds of the invention or control drugs in DMSO (dimethylsulfoxide) diluted with HBS (final DMSO conc. 0.04%), or with the solvent only (a negative control; 0.04% DMSO) and then measured again for contractile function, heart rate (HR) and coronary flow (CF). The supply of perfusates was completely stopped for 30 min in order to induce global ischemia in the heart, followed by reperfusion for 30 min. The indices (LVDP, HR, LVEDP, and CF) were measured again. After the reperfusion, the total level of lactate dehydrogenase (LDH) in the reperfusates was measured using a kit and taken as an index of ischemic myocardial injury. A negative control group was treated with the solvent only while cariporide was used as a positive control.

[2] = system: in vivo ischemic rat heart model; assay: Cardioprotective effect on in vivo ischemic rat heart model (coronary occlusion/reperfusion, infarct size); conditions: 45 min occlusion, 90 min reperfusion
Procedure: The cardioprotective effect of the benzothiophen-2-carbonylguanidine derivatives according to the present invention in in vivo ischemic hearts was judged with regard to their antischemic effects (myocardiac infarction reduction) on rats as follows.
Each male rat (300˜450 g, the Korea Research Institute of Chemical Technology, Experimental Animal Lab) was anesthetized by intraperitoneal injection with sodium pentobarbital at a dose of 75 mg/kg. Tracheotomy was performed and a tube was inserted into the trachea for subsequent artificial ventilation with a stroke volume of 10 ml/kg and a respiratory rate of 60 breaths/min. The femoral vein and the femoral artery were cannulated for the administration of the compounds and for the measurement of blood pressures, respectively. Meanwhile, the body temperature of the rats, an important factor to influence experimental results in the ischemic myocardiac injury model, was maintained constant at 37° C. using a homeothermic blanket control unit, with a body temperature-monitoring probe inserted into the rectum. Subsequently, rats were continuously measured for mean arterial blood pressure and heart rate HR throughout the experimental time period using a Statham P23XL pressure transducer (Grass Ins., Mass., USA) and an ECG/RATE Coupler (Hugo Sachs Electronic, Germany), respectively, with all continuous changes thereof recorded by Graphtec Linearcorder WR 3310 (Hugo Sachs Electronic).
The left coronary artery was occluded according to Selye H.'s method. In detail, after the chest of each rat was partially opened by left thoracotomy, the middle finger of the left hand was pressed against the right side of the chest of the rat to thrust out the heart which was then slightly fixed with the forefinger and the thumb of the same hand. Then, immediately after the left anterior descending coronary artery (LAD) was sutured with a 5-0 silk ligature, the heart was repositioned back in the thoracic cavity with both ends of the suture positioned outside. The ends of the suture were threaded through a PE tube (PE100, 2.5 cm) and allowed to stand for 20 min for stabilization. Through the cannula inserted into the femoral vein, a vehicle or the compounds of the invention were administered and 30 min was needed for sufficient effects of the administered compounds. Cariporide was used as a control. The ends of the suture threaded through the PE tube were pulled taut with hemostatic forceps to vertically press the PE tube against the coronary artery. After occlusion for 45 min, the hemostatic forceps were removed and reperfusion was conducted for 90 min.
The coronary artery was reoccluded in the same manner as described above, followed by the intravenous injection of 2 ml of 1% Evans blue. The intravenous injection of an excess of pentobarbital killed the rats, from which the hearts were then excised. The left ventricle was removed alone from the isolated heart and transected from the cardiac apex into 5 or 6 slices. Each slice was weighed. The image of each of the heart slices was captured using a Hi-scope, a compact vision system, and analyzed for blue-stained normal areas and non-stained areas with an image analyzing program (Image Pro Plus). In each slice, the area at risk (AAR) was calculated by multiplying the ratio of the non-stained area to the total area of the slice with the weight of the slice. Sum of the individual area at risk (AAR) for each slice was divided by the total weight of the left ventricle to obtain AAR (%) according to the following mathmatical formula 1.
Separately, the heat slices were incubated in 1%. 2,3,5-triphenyltetrazolium chloride (TTC) phosphate buffer (pH 7.4), 37° C., for 15 min and fixed in 10% formalin for 20˜24 hours. In the normal area of the tissue, 2,3,5-triphenyltetrazolium chloride was reduced by the myocardial dehydrogenase in the presence of the cofactor NADH to form formazan dye, which appeared as a brick-red color. […]

## CS(=O)(=O)O.N#Cc1cccc2sc(C(=O)N=C(N)N)cc12 [Example 42, (4-Cyanobenzothiophene-2-Carbonyl)Guanidine Methanesulfonate]
[1]
  LDH (free LDH level upon reperfusion): 14.7 u/g
  LVEDP (left ventricular end-diastolic pressure): 6.0 mmHg
[2]; 0.1 mg/kg intravenous
  Myocardiac infarction rate (IS/AAR, %): 36.9%
[2]; 0.3 mg/kg intravenous
  Myocardiac infarction rate (IS/AAR, %): 34.4%
